Assay [1] deals with human GLP-1R (Homo sapiens (Human), UniProt P43220, L260F). The assay is described as follows: CHO GLP-1R Clone C6 - Assay 2 (HTRF cAMP agonist assay, low receptor density). The settings on record: for Emax: read-out: Assay 2 Emax (%), CHO GLP-1R Clone C6 (low receptor density), arithmetic mean, relative to saturating GLP-1 (1 μM). A general note: In TR-FRET formats the signal depends on donor and acceptor labels being close together.

The target of assay [2] is human GLP-1R (Homo sapiens, UniProt P43220, G168S). Briefly: CHO GLP-1R Clone H6 - Assay 1 (HTRF cAMP agonist assay). Type of assay: cell-based. The settings on record: for EC50: CHO GLP-1R Clone H6, cAMP HTRF, geometric mean.
Protocol: GLP-1R-mediated agonist activity was determined with a cell-based functional assay utilizing an HTRF (Homogeneous Time-Resolved Fluorescence) cAMP detection kit (cAMP HI Range Assay Kit; CisBio cat #62AM6PEJ) that measures cAMP levels in the cell. The method is a competitive immunoassay between native cAMP produced by the cells and exogenous cAMP labeled with the dye d2. The tracer binding is visualized by a mAb anti-cAMP labeled with Cryptate. The specific signal (i.e. energy transfer) is inversely proportional to the concentration of cAMP in either standard or experimental sample.
The human GLP-1R coding sequence (NCBI Reference Sequence NP_002053.3, including naturally-occurring variant Gly168Ser) was subcloned into pcDNA3 (Invitrogen) and a cell line stably expressing the receptor was isolated (designated Clone H6).
Cells were removed from cryopreservation, re-suspended in 40 mL of Dulbecco's Phosphate Buffered Saline (DPBS—Lonza Cat #17-512Q) and centrifuged at 800×g for 5 minutes at 22° C. The cell pellet was then re-suspended in 10 mL of growth medium [DMEM/F12 1:1 Mixture with HEPES, L-Gln, 500 mL (DMEM/F12 Lonza Cat #12-719F), 10% heat inactivated fetal bovine serum (Gibco Cat #16140-071), 5 mL of 100× Pen-Strep (Gibco Cat #15140-122), 5 mL of 100×L-Glutamine (Gibco Cat #25030-081) and 500 μg/mL Geneticin (G418) (Invitrogen #10131035)]. A 1 mL sample of the cell suspension in growth media was counted on a Becton Dickinson ViCell to determine cell viability and cell count per mL. The remaining cell suspension was then adjusted with growth media to deliver 2000 viable cells per well using a Matrix Combi Multidrop reagent dispenser, and the cells were dispensed into a white 384 well tissue culture treated assay plate (Corning 3570). The assay plate was then incubated for 48 hours at 37° C. in a humidified environment in 5% carbon dioxide.
Varying concentrations of each compound to be tested (in DMSO) were diluted in assay buffer (HBSS with Calcium/Magnesium (Lonza/BioWhittaker cat #10-527F)/0.1% BSA (Sigma Aldrich cat # A7409-1L)/20 mM HEPES (Lonza/BioWhittaker cat #17-737E) containing 100 μM 3-isobutyl-1-methylxanthin (IBMX; Sigma cat #15879). The final DMSO concentration is 1%.
After 48 hours, the growth media was removed from the assay plate wells, and the cells were treated with 20 μL of the serially diluted compound in assay buffer for 30 minutes at 37° C. in a humidified environment in 5% carbon dioxide. Following the 30 minute incubation, 10 μL of labeled d2 cAMP and 10 μL of anti-cAMP antibody (both diluted 1:20 in cell lysis buffer; as described in the manufacturer's assay protocol) were added to each well of the assay plate. The plates were then incubated at room temperature and after 60 minutes, changes in the HTRF signal were read with an Envision 2104 multi-label plate reader using excitation of 330 nm and emissions of 615 and 665 nm. Raw data were converted to nM cAMP by interpolation from a cAMP standard curve (as described in the manufacturer's assay protocol) and the percent effect was determined relative to a saturating concentration of the full agonist GLP-17-36 (1 μM) included on each plate. EC50 determinations were made from agonist dose-response curves analyzed with a curve fitting program using a 4-parameter logistic dose response equation.
[3] abbreviates: Assay 2 EC50 (nM), CHO GLP-1R Clone C6 (low receptor density), cAMP HTRF, geometric mean.
The mark [4] stands for this setting: CHO GLP-1R Clone H6, arithmetic mean, relative to saturating GLP-1 (1 μM).
The mark [5] stands for this setting: read-out: Assay 2 EC50, CHO GLP-1R Clone C6 (low receptor density), cAMP HTRF, geometric mean.

The values that follow come from patent publication US10676465B2, “GLP-1 receptor agonists and uses thereof” (Pfizer Inc., priority 2018, dated 2020).

Structures are written as SMILES. Where two headings read alike, the source gives them in different places.

Chain of human GLP-1R (Homo sapiens (Human), UniProt P43220, L260F) (P43220 24-463 L260F): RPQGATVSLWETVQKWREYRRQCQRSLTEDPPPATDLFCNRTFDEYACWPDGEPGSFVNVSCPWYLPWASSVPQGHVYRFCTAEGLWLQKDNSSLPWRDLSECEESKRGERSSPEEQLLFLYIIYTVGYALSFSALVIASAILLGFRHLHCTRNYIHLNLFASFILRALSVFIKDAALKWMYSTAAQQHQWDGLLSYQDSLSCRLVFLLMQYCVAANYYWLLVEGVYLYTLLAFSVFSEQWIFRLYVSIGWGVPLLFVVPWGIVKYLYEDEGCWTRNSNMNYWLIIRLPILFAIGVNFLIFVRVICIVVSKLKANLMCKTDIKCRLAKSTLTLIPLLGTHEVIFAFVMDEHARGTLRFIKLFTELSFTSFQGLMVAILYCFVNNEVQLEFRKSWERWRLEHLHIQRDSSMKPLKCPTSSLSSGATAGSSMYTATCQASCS
Chain of human GLP-1R (Homo sapiens, UniProt P43220, G168S) (P43220 24-463 G168S limits assumed): as the sequence (P43220 24-463 L260F) above, with G145S, F237L counted along it

As usually defined, the EC50 is the concentration needed to bring the measured effect to its halfway point. For orientation: Emax means the greatest response seen or fitted, relative to the assay's reference. For `C[C@@]1(c2ccc(Cl)cc2F)Oc2cccc(C3CCN(Cc4nc5ccc(C(=O)O)cc5n4C[C@@H]4CCO4)CC3)c2O1` [Example 6, Ammonium 2-({4-[(2R)-2-(4-chloro-2-fluorophenyl)-2-methyl-1,3-benzodioxol-4-yl]piperidin-1-yl}methyl)-1-[(2S)-oxetan-2-ylmethyl]-1H-benzimidazole-6-carboxylate], the EC50 on human GLP-1R [1] (setting [3]) is 2400 nM; on human GLP-1R [1] (EC50 in Assay 2, CHO GLP-1R Clone C6, cAMP, geometric mean of replicates) it was 2400 nM; on human GLP-1R [2], 140 nM. Further, the Emax at human GLP-1R [1] and on human GLP-1R [2] (setting [4]) was 89% throughout.

Regarding `COCCn1c(CN2CCC(c3cccc4c3OC(C)(c3ccccn3)O4)CC2)nc2ccc(C(=O)O)cc21` (centres unmarked) [Example 89, 1-(2-methoxyethyl)-2-({4-[2-methyl-2-(pyridin-2-yl)-1,3-benzodioxol-4-yl]piperidin-1-yl}methyl)-1H-benzimidazole-6-carboxylic acid], the EC50 at human GLP-1R [1] (setting [5]) stood at 2900 nM; on human GLP-1R [2] it was 130 nM. Besides, the values for the maximum response (Emax) at human GLP-1R [1] and on human GLP-1R [2] (setting [4]) were 87% and 85%, respectively.

As for `CC1(c2ccc(C#N)cc2F)Oc2cccc(C3CCN(Cc4nc5ccc(C(=O)O)cc5n4C[C@@H]4CCO4)CC3)c2O1` (single isomer, unassigned) [Example 8], the EC50 at human GLP-1R [1] (setting [3]) came to 3.6 nM; on human GLP-1R [2], 0.3 nM. The Emax amounted to 91% at human GLP-1R [1] and 92% at human GLP-1R [2] (setting [4]).

With `COCCn1c(CN2CCC(c3cccc4c3OC(C)(c3ccc(OC)cc3F)O4)CC2)nc2ccc(C(=O)O)cc21` (centres unmarked) [Example 35, 2-({4-[2-(2-fluoro-4-methoxyphenyl)-2-methyl-1,3-benzodioxol-4-yl]piperidin-1-yl}methyl)-1-(2-methoxyethyl)-1H-benzimidazole-6-carboxylic acid], the EC50 was found to be 170 nM on human GLP-1R [1] (setting [5]) and 6.6 nM at human GLP-1R [2]. In addition, the Emax on human GLP-1R [1] was 89%; on human GLP-1R [2] (setting [4]), 86%.

For `CC1(c2ccc(Cl)cc2F)Oc2cccc(C3CCN(Cc4nc5ccc(C(=O)O)cc5n4CCn4ccnc4)CC3)c2O1` (centres unmarked) [Example 50, 2-({4-[2-(4-chloro-2-fluorophenyl)-2-methyl-1,3-benzodioxol-4-yl]piperidin-1-yl}methyl)-1-[2-(1H-imidazol-1-yl)ethyl]-1H-benzimidazole-6-carboxylic acid], the EC50 on human GLP-1R [1] (setting [5]) was determined as 140 nM; at human GLP-1R [2] it was 12 nM. Further, the results for the Emax at human GLP-1R [1] and at human GLP-1R [2] (setting [4]) were 92% and 87%, respectively.

In the case of `CCn1cncc1Cn1c(CN2CCC(c3cccc4c3O[C@@](C)(c3ccc(Cl)cc3F)O4)CC2)nc2ccc(C(=O)O)cc21` (single isomer, unassigned) [Example 17, Ammonium 2-({4-[2-(4-chloro-2-fluorophenyl)-2-methyl-1,3-benzodioxol-4-yl]piperidin-1-yl}methyl)-1-[(I-ethyl-1H-imidazol-5-yl)methyl]-1H-benzimidazole-6-carboxylate], the figures for the EC50 on human GLP-1R [1] (setting [5]) and at human GLP-1R [2] were 1.1 nM and 0.079 nM, respectively.

With `Cn1cnnc1Cn1c(CN2CCC(c3cccc4c3OC(C)(c3ccc(Cl)cc3F)O4)CC2)nc2ccc(C(=O)O)cc21` (centres unmarked) [Example 78, 2-({4-[2-(4-chloro-2-fluorophenyl)-2-methyl-1,3-benzodioxol-4-yl]piperidin-1-yl}methyl)-1-[(4-methyl-4H-1,2,4-triazol-3-yl)methyl]-1H-benzimidazole-6-carboxylic acid], the values for the half-maximal effective concentration (EC50) on human GLP-1R [1] (setting [5]) and on human GLP-1R [2] were 78 nM and 4.5 nM, respectively. The Emax amounted to 100% on human GLP-1R [1] and 89% at human GLP-1R [2] (setting [4]).

Take `COCCn1c(CN2CCC(c3cccc4c3OC(C)(c3ccc(OC)c(F)c3)O4)CC2)nc2ccc(C(=O)O)cc21` (centres unmarked) [Example 30, 2-({4-[2-(3-fluoro-4-methoxyphenyl)-2-methyl-1,3-benzodioxol-4-yl]piperidin-1-yl}methyl)-1-(2-methoxyethyl)-1H-benzimidazole-6-carboxylic acid]: the concentration giving a half-maximal response (EC50) amounted to 1100 nM on human GLP-1R [1] (setting [5]) and 45 nM on human GLP-1R [2]. Also, the Emax was determined as 77% on human GLP-1R [1] and 86% on human GLP-1R [2] (setting [4]).

As to `CC1(c2ccc(Cl)cc2F)Oc2cccc(C3CCN(Cc4nc5ccc(C(=O)O)cc5n4CC4CCOC4)CC3)c2O1` (centres unmarked) [Example 56, 2-({4-[2-(4-chloro-2-fluorophenyl)-2-methyl-1,3-benzodioxol-4-yl]piperidin-1-yl}methyl)-1-(tetrahydrofuran-3-ylmethyl)-1H-benzimidazole-6-carboxylic acid], the EC50 at human GLP-1R [1] (setting [5]) worked out at 11 nM; on human GLP-1R [2], 1.2 nM. Also, the values for the Emax on human GLP-1R [1] and at human GLP-1R [2] (setting [4]) were 81% and 87%, respectively.

Regarding `CC1(c2ccc(Cl)cc2F)Oc2cccc(C3CCN(Cc4nc5ccc(C(=O)O)cc5n4CCCn4cncn4)CC3)c2O1` (centres unmarked) [Example 54, 2-({4-[2-(4-chloro-2-fluorophenyl)-2-methyl-1,3-benzodioxol-4-yl]piperidin-1-yl}methyl)-1-[3-(1H-1,2,4-triazol-1-yl)propyl]-1H-benzimidazole-6-carboxylic acid], the results for the EC50 on human GLP-1R [1] (setting [5]) and at human GLP-1R [2] were 160 nM and 18 nM, respectively. For the same compound, the Emax came to 64% on human GLP-1R [1] and 82% at human GLP-1R [2] (setting [4]).

For `CC1(c2ccc(Cl)cc2F)Oc2cccc(C3CCN(Cc4nc5ccc(C(=O)O)cc5n4CCN4CCCC4=O)CC3)c2O1` (centres unmarked) [Example 48, 2-({4-[2-(4-chloro-2-fluorophenyl)-2-methyl-1,3-benzodioxol-4-yl]piperidin-1-yl}methyl)-1-[2-(2-oxopyrrolidin-1-yl)ethyl]-1H-benzimidazole-6-carboxylic acid], the figures for the EC50 at human GLP-1R [1] (setting [5]) and on human GLP-1R [2] were 280 nM and 14 nM, respectively. The Emax on human GLP-1R [1] was 73%; on human GLP-1R [2] (setting [4]), 81%.

As to `CC1(c2ccc(Cl)cc2F)Oc2c(F)ccc(C3CCN(Cc4nc5ccc(C(=O)O)cc5n4C[C@@H]4CCO4)CC3)c2O1` (single isomer, unassigned) [Example 96], the EC50 on human GLP-1R [1] (setting [3]) was determined as 11 nM; at human GLP-1R [2] it was 1.1 nM. The Emax at human GLP-1R [1] worked out at 93%; on human GLP-1R [2] (setting [4]), 85%.

For the compound `COCCn1c(CN2CCC(c3cccc4c3OC(C)(c3ccc(C#N)cn3)O4)CC2)nc2ccc(C(=O)O)cc21` (centres unmarked) [Example 94, ammonium 2-({4-[2-(5-cyanopyridin-2-yl)-2-methyl-1,3-benzodioxol-4-yl]piperidin-1-yl}methyl)-1-(2-methoxyethyl)-1H-benzimidazole-6-carboxylate], the EC50 worked out at 360 nM on human GLP-1R [1] (setting [5]) and 12 nM on human GLP-1R [2]. Further, the Emax at human GLP-1R [1] turned out to be 87%.

As to `COCCn1c(CN2CCC(c3cccc4c3OC(C)(c3ccc(OC)cc3Cl)O4)CC2)nc2ccc(C(=O)O)cc21` (centres unmarked) [Example 83, 2-({4-[2-(2-chloro-4-methoxyphenyl)-2-methyl-1,3-benzodioxol-4-yl]piperidin-1-yl}methyl)-1-(2-methoxyethyl)-1H-benzimidazole-6-carboxylic acid], the concentration giving a half-maximal response (EC50) at human GLP-1R [1] (setting [5]) amounted to 44 nM; at human GLP-1R [2] it was 3.4 nM. Moreover, the Emax on human GLP-1R [1] worked out at 88%; at human GLP-1R [2] (setting [4]) it was 85%.

With `COCCn1c(CN2CCC(c3cccc4c3OC(C)(c3ccc(Cl)cn3)O4)CC2)nc2ccc(C(=O)O)cc21.N` (centres unmarked) [Example 92, ammonium 2-({4-[2-(5-chloropyridin-2-yl)-2-methyl-1,3-benzodioxol-4-yl]piperidin-1-yl}methyl)-1-(2-methoxyethyl)-1H-benzimidazole-6-carboxylate], the EC50 at human GLP-1R [1] (setting [5]) was 72 nM; on human GLP-1R [2], 4.2 nM. At human GLP-1R [1], the Emax stood at 83%. In addition, the “Assay 1 Emax (%)” value at human GLP-1R [2] (setting [4]) is 90%.

With `COCCn1c(CN2CCC(c3cccc4c3OC(c3ccc(C#N)cc3F)O4)CC2)nc2ccc(C(=O)O)cc21` (centres unmarked) [Example 27, 2-({4-[2-(4-cyano-2-fluorophenyl)-1,3-benzodioxol-4-yl]piperidin-1-yl}methyl)-1-(2-methoxyethyl)-1H-benzimidazole-6-carboxylic acid], the EC50 at human GLP-1R [1] (setting [5]) came to 1000 nM; at human GLP-1R [2] it was 61 nM. Besides, the results for the Emax on human GLP-1R [1] and at human GLP-1R [2] (setting [4]) were 100% and 98%, respectively.

Turning to `CNC(=O)Cn1c(CN2CCC(c3cccc4c3OC(C)(c3ccc(Cl)cc3F)O4)CC2)nc2ccc(C(=O)O)cc21` (centres unmarked) [Example 52, 2-({4-[2-(4-chloro-2-fluorophenyl)-2-methyl-1,3-benzodioxol-4-yl]piperidin-1-yl}methyl)-1-[2-(methylamino)-2-oxoethyl]-1H-benzimidazole-6-carboxylic acid], the EC50 on human GLP-1R [1] (setting [5]) was 570 nM; at human GLP-1R [2], 32 nM. The Emax at human GLP-1R [1] stood at 80%; at human GLP-1R [2] (setting [4]) it was 85%.

`COCCn1c(CN2CCC(c3cccc4c3OC(C)(c3ccc(C#N)cc3)O4)CC2)nc2ccc(C(=O)O)cc21` (centres unmarked) [Example 34, 2-({4-[2-(4-cyanophenyl)-2-methyl-1,3-benzodioxol-4-yl]piperidin-1-yl}methyl)-1-(2-methoxyethyl)-1H-benzimidazole-6-carboxylic acid]: the EC50 stood at 110 nM on human GLP-1R [1] (setting [5]) and 7.8 nM on human GLP-1R [2]. The Emax on human GLP-1R [1] turned out to be 88%; at human GLP-1R [2] (setting [4]) it was 98%.

As to `CN(C)CCn1c(CN2CCC(c3cccc4c3OC(C)(c3ccc(Cl)cc3F)O4)CC2)nc2ccc(C(=O)O)cc21` (centres unmarked) [Example 12, 2-({4-[2-(4-Chloro-2-fluorophenyl)-2-methyl-1,3-benzodioxol-4-yl]piperidin-1-yl}methyl)-1-[2-(dimethylamino)ethyl]-1H-benzimidazole-6-carboxylic Acid], the EC50 stood at 690 nM on human GLP-1R [1] (setting [3]) and 29 nM on human GLP-1R [2]. The results for the Emax on human GLP-1R [1] and on human GLP-1R [2] (setting [4]) were 92% and 83%, respectively.
